Key:
Format in all cases: physicochemical
[1] = Solubility of agrochemical actives in the solvents: visual observation at 0° C. with nucleation; set-up: key: Crystal: When the formation of active crystals is observed, the term of <> is indicated; Limpid: When the solution remains limpid (absence of solid or cloudiness), it is the term of <> which is indicated; conditions: crystal of active added, further 7 days at 0° C.
Experimental: Formulations were made by diluting various actives, reported below in the table, in the compounds 1C, 2C, 3 and 4 synthesized above. 3) Visual observation at 0° C. with nucleation (by introducing a crystal of the pure active into the liquid) A crystal of the active material is introduced into the formulation which has spent 7 days at 0° C. for nucleation, and the formulation is again placed for 7 days at 0° C. The aspect of the formulation is noted and the presence of crystals or the growth of the introduced crystal is possibly located. The actives used are commercially available.

[2] = Solubility of agrochemical actives in the solvents: visual observation at 25° C.; set-up: key: Crystal: When the formation of active crystals is observed, the term of <> is indicated; Limpid: When the solution remains limpid (absence of solid or cloudiness), it is the term of <> which is indicated
Experimental: (§1) Formulations were made by diluting various actives, reported below in the table, in the compounds 1C, 2C, 3 and 4 synthesized above.
1) Visual observation at 25° C.
The aspect of the formulation is noted and the presence of crystals is possibly located.
(§2) The actives used are commercially available.

[3] = Solubility of agrochemical actives in the solvents: visual observation at 0° C. after 7 days (CIPAC MT39 test); set-up: key: Crystal: When the formation of active crystals is observed, the term of <> is indicated; Limpid: When the solution remains limpid (absence of solid or cloudiness), it is the term of <> which is indicated; conditions: 7 days at 0° C.
Experimental: as §1
2) Visual observation at 0° C.
The formulation is placed at 0° C. for 7 days and the aspect of the formulation is noted and the presence of crystals is possibly located (CIPAC MT39 test).
as §2

[4] = Measurement of solubility of the solvent in water; conditions: +20° C., stirred 2 hours, visual limpidity
Experimental: In a glass flask, a specific weight of compound is weighed. A known mass of water is added on to this compound. T his mixture is magnetically stirred at a temperature of +20° C. for 2 hours. After this period, if visually, the solution has cloudiness or heterogeneity, a new mass of water is added to the mixture. This iteration occurs until a limpid solution is obtained. Maximum solubility is then less than the last value having led to a cloudy or heterogeneous mixture and greater than that having led to a limpid mixture.

[5] = Active Alachlor 48% EC in the compound as solvent
[6] = Active Difenconazole 25% EC in the compound as solvent
[7] = Active Phenmedipham 16% EC in the compound as solvent
[8] = Active Propanil 36% EC in the compound as solvent
[9] = Active Propuxur 20% EC in the compound as solvent
[10] = Active alpha-Cypermethrin 10% EC in the compound as solvent
[11] = Active Azoxystrobin 25% EC in the compound as solvent
[12] = Active Dimethoate 40% EC in the compound as solvent
[13] = Active Oxyfluorfen 22% EC in the compound as solvent
[14] = Active Pendimethalin 33% EC in the compound as solvent
[15] = Active Tebuconazole 25% EC in the compound as solvent
[16] = Active Trifluralin 40% EC in the compound as solvent
[17] = Active Chlorpyrifos 40% EC in the compound as solvent

SMILES | Aspect at 0° C. with nucleation [1, 5] | Aspect at 0° C. with nucleation [1, 6] | Aspect at 0° C. with nucleation [1, 8] | Aspect at 0° C. with nucleation [1, 10] | Aspect at 25° C. [2, 5] | Aspect at 25° C. [2, 6] | Aspect at 25° C. [2, 12] | Aspect at 25° C. [2, 13] | Aspect at 25° C. [2, 14] | Aspect at 25° C. [2, 8] | Aspect at 25° C. [2, 9] | Aspect at 25° C. [2, 16] | Aspect at 25° C. [2, 10] | Aspect at 0° C. [3, 5] | Aspect at 0° C. [3, 6] | Aspect at 0° C. [3, 12] | Aspect at 0° C. [3, 13] | Aspect at 0° C. [3, 14] | Aspect at 0° C. [3, 8] | Aspect at 0° C. [3, 16] | further results
COC(=O)C(=O)N(C)C [Compound 1, methyl 2-(dimethylamino)-2-oxoacetate] | Limpid | Limpid | Limpid | Limpid | Limpid | Limpid | Limpid | Limpid | Limpid | Limpid | Limpid | Limpid | Limpid | Limpid | Limpid | Crystal | Crystal | Crystal | Limpid | Crystal | Aspect at 0° C. with nucleation [1, 7]: Limpid; Aspect at 0° C. with nucleation [1, 9]: Limpid; Aspect at 25° C. [2, 11]: Limpid; Aspect at 25° C. [2, 7]: Limpid; Aspect at 25° C. [2, 15]: Limpid; Aspect at 0° C. [3, 11]: Crystal; Aspect at 0° C. [3, 7]: Limpid; Aspect at 0° C. [3, 9]: Limpid; Aspect at 0° C. [3, 15]: Crystal; Aspect at 0° C. [3, 10]: Limpid
CCOC(=O)C(=O)N(C)C [Compound 2, ethyl 2-(dimethylamino)-2-oxoacetate] | Limpid | Limpid | Limpid | Limpid | Limpid | Limpid | Limpid | Limpid | Limpid | Limpid | Limpid | Limpid | Limpid | Limpid | Limpid | Limpid | Limpid | Crystal | Limpid | Limpid | Aspect at 0° C. with nucleation [1, 17]: Limpid; Aspect at 0° C. with nucleation [1, 12]: Crystal; Aspect at 0° C. with nucleation [1, 13]: Limpid; Aspect at 0° C. with nucleation [1, 7]: Limpid; Aspect at 0° C. with nucleation [1, 16]: Limpid; Aspect at 25° C. [2, 11]: Limpid; Aspect at 25° C. [2, 17]: Limpid; Aspect at 25° C. [2, 7]: Limpid; Aspect at 25° C. [2, 15]: Limpid; Aspect at 0° C. [3, 11]: Crystal; Aspect at 0° C. [3, 17]: Limpid; Aspect at 0° C. [3, 7]: Limpid; Aspect at 0° C. [3, 9]: Crystal; Aspect at 0° C. [3, 15]: Crystal; Aspect at 0° C. [3, 10]: Limpid
CCCCC(CC)COC(=O)C(=O)N(C)C (centres unmarked) [Compound 3, 2-ethyl-hexyl 2-(dimethylamino)-2-oxoacetate] | Limpid | Limpid | Limpid | Limpid | Limpid | Limpid | Limpid | Limpid | Limpid | Limpid | Limpid | Limpid | Limpid | Limpid | Limpid | Crystal | Limpid | Crystal | Limpid | Limpid | Aspect at 0° C. with nucleation [1, 17]: Limpid; Aspect at 0° C. with nucleation [1, 13]: Crystal; Aspect at 0° C. with nucleation [1, 16]: Limpid; Solubility in water (wt %) [4]: <0.1 wt %; Aspect at 25° C. [2, 17]: Limpid; Aspect at 0° C. [3, 17]: Limpid; Aspect at 0° C. [3, 9]: Crystal; Aspect at 0° C. [3, 10]: Limpid
CCCCCCCCCCOC(=O)C(=O)N(C)C [Compound 4, n-decyl 2-(dimethylamino)-2-oxoacetate] | Limpid | Limpid | Limpid |  | Limpid | Limpid |  | Limpid |  | Limpid |  | Limpid |  | Limpid | Limpid |  | Limpid |  | Limpid | Crystal | Aspect at 0° C. with nucleation [1, 13]: Limpid; Solubility in water (wt %) [4]: <0.025 wt %; Aspect at 25° C. [2, 17]: Limpid; Aspect at 0° C. [3, 17]: Crystal

Reference: patent US8981148B2, “Esteramide compounds, methods for preparing same, and uses thereof” (priority 2010, dated 2015)
